Converted amounts (≈) assume the structure as drawn.
Experiments:
Test in all cases: ≥ marks a high value that may be exact or a test limit, other limits are often not marked, values filed in µg/mL are converted to µM
Staphylococcus aureus = test system: Staphylococcus aureus
Micrococcus luteus = test system: Micrococcus luteus
Bacillus subtilis = test system: Bacillus subtilis
Klebsiella pneumoniae = test system: Klebsiella pneumoniae
Escherichia coli = test system: Escherichia coli
Salmonella typhimurium = test system: Salmonella typhimurium
[1] = test system: Staphylococcus epidermidis
Proteus mirabilis = test system: Proteus mirabilis
Pseudomonas aeruginosa = test system: Pseudomonas aeruginosa
Shigella dysenteriae = test system: Shigella dysenteriae
[2] = test system: Enterococcus faecalis NCTC 12697
[3] = test system: Staphylococcus aureus ATCC 29213
Escherichia coli SBS 363 = test system: Escherichia coli SBS 363
[4] = test system: Bacillus subtilis ATCC 6633
Escherichia coli JM109 = test system: Escherichia coli JM109
[5] = test system: Pseudomonas aeruginosa ATCC 27853
[6] = test system: Escherichia coli ATCC 25922
[7] = test system: Salmonella enterica subsp. enterica serovar Typhimurium ATCC 14028
[8] = test system: Shigella dysenteriae ATCC 9752
[9] = test system: Staphylococcus epidermidis ATCC 12228
[10] = test system: Staphylococcus aureus ATCC 6538P
[11] = test system: Klebsiella pneumoniae ATCC 10031

Row | MIC (Staphylococcus aureus) [µM] | MIC (Micrococcus luteus) [µM] | MIC (Bacillus subtilis) [µM] | MIC (Klebsiella pneumoniae) [µM] | MIC (Escherichia coli) [µM] | MIC (Salmonella typhimurium) [µM] | MIC [1] [µM] | MIC (Proteus mirabilis) [µM] | MIC (Pseudomonas aeruginosa) [µM] | MIC (Shigella dysenteriae) [µM] | Compound | further results
1 | 2.39 (≈ 3.1 µg/mL) | 19.3 (≈ 25 µg/mL) | 4.86 (≈ 6.3 µg/mL) | 9.65 (≈ 12.5 µg/mL) | 19.3 (≈ 25 µg/mL) | ≥ 38.6 | 9.65 (≈ 12.5 µg/mL) | ≥ 154 | 77.2 (≈ 100 µg/mL) | 9.65 (≈ 12.5 µg/mL) | CC(C)C[C@H](NC(=O)[C@H](Cc1c[nH]c2ccccc12)NC(=O)CNC(=O)[C@H](CC(C)C)NC(=O)[C@@H](N)Cc1ccccc1)C(=O)N[C@@H](Cc1ccccc1)C(=O)N[C@@H](CCCCN)C(=O)N[C@H](C(=O)N[C@@H](C)C(=O)N[C@@H](CO)C(=O)N[C@@H](CCCCN)C(=O)O)C(C)C [FLGWLFKVASK] | 
2 |  |  |  |  |  |  |  |  |  |  | CC(C)C[C@H](NC(=O)[C@H](C)NC(=O)[C@H](Cc1c[nH]c2ccccc12)NC(=O)[C@H](CCCCN)NC(=O)[C@@H]1CCCN1C(=O)[C@H](CC(C)C)NC(=O)[C@@H](N)Cc1ccccc1)C(=O)N[C@@H](CCCCN)C(=O)N[C@@H](Cc1c[nH]c2ccccc12)C(=O)N[C@@H](C)C(=O)N[C@@H](C)C(=O)N[C@@H](CCCCN)C(N)=O [FLPKWALKWAAK] | MIC [2]: ≥ 512 µM
3 |  |  |  |  |  |  |  |  |  |  | CC[C@H](C)[C@H](NC(=O)[C@H](C)NC(=O)[C@H](CCC(N)=O)NC(=O)[C@H](Cc1cnc[nH]1)NC(=O)CNC(=O)[C@H](CCSC)NC(=O)[C@@H]1CCCN1C(=O)[C@H](CCCN=C(N)N)NC(=O)CNC(=O)[C@@H]1CSSC[C@@H]2NC(=O)[C@H](CC(N)=O)NC(=O)[C@H](Cc3cnc[nH]3)NC(=O)[C@H](CCCCN)NC(=O)[C@H](CC(=O)O)NC(=O)[C@H](CC(N)=O)NC(=O)[C@H]([C@@H](C)O)NC(=O)[C@@H]3CSSC[C@H](NC(=O)[C@H](CCCCN)NC(=O)[C@H](CC(C)C)NC(=O)[C@H](CCCCN)NC(=O)[C@H](Cc4ccccc4)NC(=O)[C@H](CC(C)C)NC(=O)CNC(=O)[C@H](CCCCN)NC(=O)[C@H](CCCN=C(N)N)NC(=O)[C@H](CSSC[C@H](NC(=O)[C@@H](N)CO)C(=O)N[C@@H]([C@@H](C)CC)C(=O)N4CCC[C@H]4C(=O)N[C@@H](CCCCN)C(=O)N[C@@H](Cc4cnc[nH]4)C(=O)N[C@@H](CCC(=O)O)C(=O)N[C@@H](CCC(=O)O)C(=O)N3)NC2=O)C(=O)N[C@@H](CCC(N)=O)C(=O)N[C@H]2CSSC[C@H](NC(=O)[C@H](CCCN=C(N)N)NC(=O)[C@H](CCC(=O)O)NC(=O)[C@H]([C@@H](C)O)NC(=O)[C@@H]3CCCN3C(=O)[C@H](CCC(N)=O)NC(=O)CNC(=O)[C@H](CO)NC(=O)[C@H](CCC(=O)O)NC(=O)[C@H](CC(=O)O)NC(=O)[C@H](CC(=O)O)NC(=O)[C@H](Cc3ccccc3)NC(=O)[C@H]([C@@H](C)O)NC(=O)[C@H](CO)NC2=O)C(=O)N[C@@H](C)C(=O)N1)C(=O)N[C@@H](CCC(=O)O)C(=O)N[C@H](C(=O)NCC(=O)N[C@@H](CC(C)C)C(=O)N[C@@H](CC(N)=O)C(=O)N[C@H](C(=O)N[C@@H](Cc1ccccc1)C(=O)N[C@@H](CCCN=C(N)N)C(=O)NCC(=O)N[C@@H](CC(C)C)C(=O)N[C@@H](Cc1ccccc1)C(=O)N[C@@H](CCCCN)C(=O)NCC(=O)N[C@@H](CCCCN)C(=O)N[C@@H](CCCCN)C(=O)N[C@@H](CCCCN)C(=O)N[C@@H](CC(N)=O)C(=O)N[C@@H](CCCCN)C(=O)N[C@@H](CCCCN)C(=O)N[C@H](C(=O)N[C@@H](CCCCN)C(N)=O)[C@@H](C)O)[C@@H](C)CC)[C@@H](C)O [SCIPKHEECTNDKHNCCRKGLFKLKCQCSTFDDESGQPTERCACGRPMGHQAIETGLNIFRGLFKGKKKNKKTK] | MIC [3]: > 250 µM; MIC (Escherichia coli SBS 363): 22.1 µM (≈ 185 µg/mL)
4 |  | ≥ 100 |  |  |  |  |  |  |  |  | CC[C@H](C)[C@@H]1NC(=O)[C@H](CO)NC(=O)[C@H](CCCCN)NC(=O)[C@@H]2CSSC[C@@H](C(=O)N[C@@H](CC(=O)O)C(=O)NCC(=O)N[C@@H](CCC(N)=O)C(=O)N[C@H](C(=O)N[C@H](C(=O)N[C@H](C(=O)N[C@@H](CC(N)=O)C(=O)N[C@@H](CO)C(=O)N[C@H]3CSSC[C@@H]4NC(=O)[C@H](CCCN=C(N)N)NC(=O)CNC(=O)[C@H](Cc5ccccc5)NC(=O)[C@H](CCCCN)NC(=O)[C@H](CCCN=C(N)N)NC(=O)[C@H](CCCCN)NC(=O)[C@H](CSSC[C@@H](C(=O)N[C@@H](Cc5ccccc5)C(=O)N[C@@H](Cc5ccccc5)C(=O)O)NC(=O)[C@H](CCC(=O)O)NC(=O)[C@H]([C@@H](C)O)NC(=O)[C@H]([C@@H](C)CC)NC(=O)[C@H](Cc5ccccc5)NC(=O)CNC(=O)[C@H](CC(=O)O)NC(=O)[C@H](CO)NC4=O)NC(=O)[C@H](CC(=O)O)NC(=O)[C@H](CCC(=O)O)NC3=O)[C@@H](C)CC)[C@@H](C)O)[C@@H](C)O)NC(=O)[C@H](CO)NC(=O)[C@H](C(C)C)NC(=O)CNC(=O)[C@H](CCCCN)NC(=O)[C@H](CCCN=C(N)N)NC(=O)[C@H](CC(N)=O)NC(=O)[C@H](CC(C)C)NC(=O)[C@H](Cc3ccc(O)cc3)NC(=O)CNC(=O)[C@H](Cc3ccc(O)cc3)NC(=O)CNC(=O)[C@H](CSSC[C@H](NC(=O)[C@@H](NC(=O)[C@@H]3CCCN3C(=O)[C@H](C)NC(=O)[C@H](Cc3ccc(O)cc3)NC(=O)[C@H](C)NC(=O)[C@H](Cc3ccccc3)NC(=O)[C@@H](NC(=O)[C@@H](N)CCSC)C(C)C)[C@@H](C)O)C(=O)N[C@@H](C)C(=O)N[C@@H](CCCN=C(N)N)C(=O)N2)NC(=O)[C@H](Cc2ccc(O)cc2)NC(=O)[C@H](CCCN=C(N)N)NC(=O)[C@H](C)NC(=O)CNC1=O [MVFAYAPTCARCKSIGARYCGYGYLNRKGVSCDGQTTINSCEDCKRKFGRCSDGFITECFF] | MIC (Escherichia coli SBS 363): ≥ 35.4 µM
5 | 9.95 (≈ 12.5 µg/mL) | 9.95 (≈ 12.5 µg/mL) | 9.95 (≈ 12.5 µg/mL) | 79.6 (≈ 100 µg/mL) | 79.6 (≈ 100 µg/mL) | ≥ 159 | ≥ 39.8 | ≥ 159 | > 159 | ≥ 79.6 | CC(C)C[C@H](NC(=O)[C@H](Cc1ccccc1)NC(=O)CNC(=O)[C@H](CC(C)C)NC(=O)[C@@H](N)Cc1ccccc1)C(=O)N[C@@H](Cc1ccccc1)C(=O)N[C@@H](CCCCN)C(=O)N[C@H](C(=O)N[C@@H](C)C(=O)N[C@@H](CO)C(=O)N[C@@H](CCCCN)C(=O)O)C(C)C [FLGFLFKVASK] | 
6 |  |  |  |  |  |  |  |  |  |  | CC[C@H](C)[C@H](N)C(=O)N[C@@H](CC(N)=O)C(=O)N[C@@H](Cc1c[nH]c2ccccc12)C(=O)N[C@@H](CCCCN)C(=O)N[C@@H](CCCCN)C(=O)N[C@H](C(=O)N[C@@H](C)C(=O)N[C@@H](CCC(=O)O)C(=O)N[C@H](C(=O)NCC(=O)N[C@@H](CCCCN)C(=O)N[C@@H](CCC(N)=O)C(=O)N[C@H](C(=O)N[C@@H](CC(C)C)C(=O)N[C@@H](CO)C(=O)N[C@@H](C)C(=O)N[C@@H](CC(C)C)C(N)=O)C(C)C)[C@@H](C)CC)[C@@H](C)CC [INWKKIAEIGKQVLSAL] | MIC [4]: 1.05 µM (≈ 2 µg/mL); MIC (Escherichia coli JM109): 4.19 µM (≈ 8 µg/mL)
7 |  |  |  |  |  |  |  |  |  |  | CC(C)C[C@H](NC(=O)[C@H](CC(C)C)NC(=O)[C@H](Cc1c[nH]c2ccccc12)NC(=O)[C@H](CCCCN)NC(=O)[C@H](CC(C)C)NC(=O)[C@@H](N)CC(C)C)C(=O)N[C@@H](CCCCN)C(N)=O [LLKWLLK] | MIC [4]: 27.4 µM (≈ 25 µg/mL); MIC [5]: 110 µM (≈ 99.9 µg/mL); MIC [6]: 110 µM (≈ 99.9 µg/mL); MIC [7]: 219 µM (≈ 200 µg/mL); MIC [8]: ≥ 110 µM; MIC [9]: 110 µM (≈ 99.9 µg/mL); MIC [10]: 27.4 µM (≈ 25 µg/mL); MIC [11]: ≥ 219 µM
8 | > 141 | ≥ 141 | ≥ 141 | > 141 | > 141 | ≥ 141 | ≥ 141 | ≥ 141 | > 141 | ≥ 141 | CC(C)C[C@H](NC(=O)[C@@H](NC(=O)[C@H](CCCCN)NC(=O)[C@H](CO)NC(=O)[C@H](C)NC(=O)[C@@H](NC(=O)[C@H](CCCCN)NC(=O)[C@H](Cc1ccccc1)NC(=O)[C@@H](N)CC(C)C)C(C)C)C(C)C)C(=O)N1CCC[C@H]1C(=O)N[C@@H](CO)C(=O)N[C@H](C(=O)N[C@@H](CCCCN)C(=O)O)C(C)C [LFKVASKVLPSVK] | 
9 | 20.9 (≈ 25 µg/mL) | 10.5 (≈ 12.5 µg/mL) | 20.9 (≈ 25 µg/mL) | 167 (≈ 200 µg/mL) | 83.7 (≈ 100 µg/mL) | ≥ 167 | ≥ 83.7 | ≥ 167 | 167 (≈ 200 µg/mL) | ≥ 83.7 | CC(C)C[C@H](NC(=O)[C@H](C)NC(=O)CNC(=O)[C@H](CC(C)C)NC(=O)[C@@H](N)Cc1ccccc1)C(=O)N[C@@H](Cc1ccccc1)C(=O)N[C@@H](CCCCN)C(=O)N[C@@H](CC(C)C)C(=O)N[C@@H](C)C(=O)N[C@@H](CO)C(=O)N[C@@H](CCCCN)C(=O)O [FLGALFKLASK] | 
